Test results reported in patent US9540358B2, “Tricyclic compounds as anticancer agents” (ICAHN SCHOOL OF MEDICINE AT MOUNT SINAI, priority 2011, dated 2017).

Key:
Assay type in all cases: cell-based
H1650 lung cancer cells = assay: Cell viability assay (MTT, IC50 determination); details: MTT; for IC50: Homo sapiens, NCI-H1650, 48 hours after drug treatment; for IC50 (Cell Viability Data): 48 hours after drug treatment
Procedure: 89(22): p. […] H1650 lung cancer cells were plated at 150,000 cells per well in a 12 well plate. Twenty-four hours after plating, cells were treated as described with increasing concentrations of drug and control. Forty-eight hours after drug treatment, cells were treated with 100 μL of 3-(4,5-Dimethylthiazol-2-yl)-2,5-diphenyltetrazolium bromide (MTT) and incubated for 2 hours at 37 C. The MTT solution was subsequently replaced with 300 μL of n-propyl alcohol and re-aliquoted to a 96 well plates. Spectrophotometric analysis of each solution was performed using a 96 well plate reader at 600 nm in triplicate.

A549luc cells = assay: Colony formation (clonogenic) assay, A549luc; details: 7 days
Procedure: (§1) Protocol for clonogenic assay follows Sangodkar et al. J Clin Invest 2012; 122:2637-51.
(§2) Cell culture and staining: For both A549luc and H292 cells, 500 cells were seeded into each well of a 6-well plate and allowed to attach for 24 hours before drug treatment. The following day, cells were treated with either the appropriate dose of drug or an equivalent volume of DMSO (two replicates were treated for each condition). For each condition, depleted media was replaced with fresh media containing the equivalent drug dose four days after initial treatment. Cells were harvested either 7 (A549luc) or 8 (H292) days after initial treatment. Briefly, media was aspirated from each well and the cells were washed twice with ice-cold PBS, then plates were allowed to dry at room temperature for 4 hours. Cells were fixed for one hour in a fixing solution consisting of 10% methanol and 10% glacial acetic acid in distilled water, then stained overnight in 1% (w/v) crystal violet dissolved in methanol. The next day, staining solution was aspirated from the wells and plates were washed gently with distilled water to remove excess stain before colony counting. Colonies were imaged on a ChemiDoc XRS+ (Bio-Rad) and images were exported as 8-bit TIFF files. Colonies were counted using the Colony Counter plugin in ImageJ, with colony size defined as between 4 and 400 square pixels, and minimum circularity set at 0.6. Duplicate wells were averaged to obtain a single value for each condition. Results (number of colonies) for A549luc cells are shown in Table 2 and results (number of colonies) for H292 cells are shown in Table 3: […]

H292 cells = assay: Colony formation (clonogenic) assay, H292; details: 8 days
Procedure: as §1, §2

Row | SMILES | IC50 (H1650 lung cancer cells) [µM] | further results
1 | O=S(=O)(NCCNC1c2ccccc2CCc2ccccc21)c1ccc(Cl)cc1 [Example 55, 4-Chloro-N-(2-((10,11-dihydro-5H-dibenzo[a,d][7]annulen-5-yl)amino)ethyl)benzenesulfonamide] | ~25 | –
2 | O=S(=O)(NCCNC1c2ccccc2CCc2ccccc21)c1ccc(OC(F)(F)F)cc1 [Example 56, 4-Trifluoromethoxy-N-(2-((10,11-dihydro-5H-dibenzo[a,d][7]annulen-5-yl)amino)ethyl)benzenesulfonamide] | ~25 | –
3 | O=S(=O)(NCC(O)CN1c2ccccc2CCc2ccccc21)c1ccc(Cl)cc1 (stereo not shown) [Example 59, 4-Chloro-N-(3-(10,11-dihydro-5H-dibenzo[b,f]azepin-5-yl)-2-hydroxypropyl)benzenesulfonamide] | ~25 | –
4 | O=S(=O)(NCCCN1c2ccccc2CCc2ccc(Cl)cc21)c1cc(Cl)sc1Cl [Example 62, 2,5-dichloro-N-(3-(3-chloro-10,11-dihydro-5H-dibenzo[b,f]azepin-5-yl)propyl)thiophene-3-sulfonamide] | ~25 | –
5 | O=C(CNS(=O)(=O)c1ccc(OC(F)(F)F)cc1)CN1c2ccccc2CCc2ccccc21 [Example 64, N-(3-(10,11-dihydro-5H-dibenzo[b,f]azepin-5-yl)-2-oxopropyl)-4-(trifluoromethoxy)benzenesulfonamide] | ~35 | –
6 | N#Cc1ccc(S(=O)(=O)NCCC=C2c3ccccc3CCc3ccccc32)cc1 [Example 71, N-(3-(10,11-dihydro-5H-dibenzo[a,d][7]annulen-5-ylidene)propyl)-4-cyanobenzenesulfonamide] | 25 | –
7 | O=S(=O)(NC1CCCC(N2c3ccccc3CCc3ccccc32)C1)c1ccc(OC(F)(F)F)cc1 (stereo not shown) [Example 73, N-(3-(10,11-dihydro-5H-dibenzo[b,f]azepin-5-yl)cyclohexyl)-4-(trifluoromethoxy)benzenesulfonamide] | – | number of colonies (A549luc cells; 5 μM): 2; number of colonies (A549luc cells; 7.5 μM): 0; number of colonies (A549luc cells; 10 μM): 0; number of colonies (H292 cells; 5 μM): 40.5; number of colonies (H292 cells; 7.5 μM): 16.5; number of colonies (H292 cells; 10 μM): 7
8 | O=S(=O)(NC1CCC(=C2c3ccccc3CCc3ccccc32)CC1)c1ccc(Cl)cc1 (stereo not shown) [Example 80, N-(4-(10,11-dihydro-5H-dibenzo[a,d][7]annulen-5-ylidene)cyclohexyl)-4-chlorobenzenesulfonamide] | ~20 | –
9 | O=S(=O)(NCCCN1c2ccccc2CCc2ccccc21)c1cnc(Cl)c(Br)c1 [Example 81, 5-bromo-6-chloro-N-(3-(10,11-dihydro-5H-dibenzo[V]azepin-5-yl)propyl)pyridine-3-sulfonamide] | – | IC50 (Cell Viability Data) (H1650 lung cancer cells): INACTIVE
10 | CC(=O)Nc1nc(C)c(S(=O)(=O)NCCCN2c3ccccc3CCc3ccccc32)s1 [Example 82, N-(5-(N-(3-(10,11-dihydro-5H-dibenzo[b,f]azepin-5-yl)propyl)sulfamoyl)-4-methylthiazol-2-yl)acetamide] | – | IC50 (Cell Viability Data) (H1650 lung cancer cells): INACTIVE
11 | COC(=O)NCCN1c2ccccc2Sc2ccc(Cl)cc21 [Example 83] | – | IC50 (Cell Viability Data) (H1650 lung cancer cells): INACTIVE
12 | O=S(=O)(NCC(O)CN1c2ccccc2Sc2ccccc21)c1ccc(OC(F)(F)F)cc1 (stereo not shown) [Example 84] | ~25 | –
13 | O=S(=O)(NCCCN1c2ccccc2CCc2ccc(Cl)cc21)c1ccccc1OC(F)(F)F [Example 86] | – | IC50 (Cell Viability Data) (H1650 lung cancer cells): INACTIVE
14 | CC(=O)Nc1ccc(S(=O)(=O)NCCCN2c3ccccc3CCc3ccc(Cl)cc32)cc1 [Example 88] | ~20 | –

Further compounds by falling IC50 (H1650 lung cancer cells), results first:

Row | IC50 (H1650 lung cancer cells) [µM] | SMILES | further results
15 | ~20 | O=S(=O)(NCCCN1c2ccccc2CCc2ccc(Cl)cc21)c1cc(Cl)c(Cl)s1 [Example 61, 4,5-dichloro-N-(3-(3-chloro-10,11-dihydro-5H-dibenzo[b,f]azepin-5-yl)propyl)thiophene-2-sulfonamide] | –
16 | ~20 | CC(CNS(=O)(=O)c1ccc(OC(F)(F)F)cc1)CN1c2ccccc2CCc2ccccc21 (stereo not shown) [Example 67, N-(3-(10,11-dihydro-5H-dibenzo[b,f]azepin-5-yl)-2-methylpropyl)-4-(trifluoromethoxy)benzenesulfonamide] | –
17 | ~20 | CC(CNS(=O)(=O)c1ccc(Cl)cc1)CN1c2ccccc2CCc2ccccc21 (stereo not shown) [Example 68, 4-Chloro-N-(3-(10,11-dihydro-5H-dibenzo[b,f]azepin-5-yl)-2-methylpropyl)benzenesulfonamide] | –
18 | ~20 | O=S(=O)(NCCCN1c2ccccc2CCc2cccc(Cl)c21)c1ccc(OC(F)(F)F)cc1 [Example 69, N-(3-(4-chloro-10,11-dihydro-5H-dibenzo[b,f]azepin-5-yl)propyl)-4-(trifluoromethoxy)benzenesulfonamide] | –
19 | ~20 | O=S(=O)(NCCCN1c2ccccc2CCc2cccc(Cl)c21)c1ccc(Cl)cc1 [Example 70, 4-Chloro-N-(3-(4-chloro-10,11-dihydro-5H-dibenzo[b,f]azepin-5-yl)propyl)benzenesulfonamide] | –
20 | 20 | O=S(=O)(NCCC=C1c2ccccc2CCc2ccccc21)c1ccc(F)cc1 [Example 72, N-(3-(10,11-dihydro-5H-dibenzo[a,d][7]annulen-5-ylidene)propyl)-4-fluorobenzenesulfonamide] | –
21 | 20 | O=S(=O)(NC1CCC(N2c3ccccc3CCc3ccccc32)C1)c1ccc(OC(F)(F)F)cc1 (stereo not shown) [Example 76, N-(3-(10,11-dihydro-5H-dibenzo[b,f]azepin-5-yl)cyclopentyl)-4-(trifluoromethoxy)benzenesulfonamide] | –
22 | ~20 | O=S(=O)(NC1CCC(=C2c3ccccc3CCc3ccccc32)CC1)c1ccc(OC(F)(F)F)cc1 (stereo not shown) [Example 79, N-(4-(10,11-dihydro-5H-dibenzo[a,d][7]annulen-5-ylidene)cyclohexyl)-4-(trifluoromethoxy)benzenesulfonamide] | –
23 | ~15 | O=S(=O)(NCCCN1c2ccccc2CCc2ccc(Cl)cc21)c1cccc(OC(F)(F)F)c1 [Example 54, N-(3-(3-chloro-10,11-dihydro-5H-dibenzo[b,f]azepin-5-yl)propyl)-3-(trifluoromethoxy)benzenesulfonamide] | –
24 | ~15 | O=S(=O)(NCC(O)CN1c2ccccc2CCc2ccccc21)c1ccc(OC(F)(F)F)cc1 (stereo not shown) [Example 60, 4-Trifluoromethoxy-N-(3-(10,11-dihydro-5H-dibenzo[b,f]azepin-5-yl)-2-hydroxypropyl)benzenesulfonamide] | number of colonies (A549luc cells; 5 μM): 126.5; number of colonies (A549luc cells; 7.5 μM): 118.5; number of colonies (A549luc cells; 10 μM): 56; number of colonies (H292 cells; 5 μM): 107; number of colonies (H292 cells; 7.5 μM): 105; number of colonies (H292 cells; 10 μM): 42
25 | ~15 | N#CC(CNS(=O)(=O)c1ccc(OC(F)(F)F)cc1)CN1c2ccccc2CCc2ccccc21 (stereo not shown) [Example 65, N-(2-cyano-3-(10,11-dihydro-5H-dibenzo[b,f]azepin-5-yl)propyl)-4-(trifluoromethoxy)benzenesulfonamide] | –
26 | ~15 | O=S(=O)(NC[C@@H](O)CN1c2ccccc2CCc2ccccc21)c1ccc(OC(F)(F)F)cc1 [Example 74, (S)—N-(3-(10,11-dihydro-5H-dibenzo[b,f]azepin-5-yl)-2-hydroxypropyl)-4-(trifluoromethoxy)benzenesulfonamide] | number of colonies (A549luc cells; 5 μM): 135.5; number of colonies (A549luc cells; 7.5 μM): 118.5; number of colonies (A549luc cells; 10 μM): 96; number of colonies (H292 cells; 5 μM): 85.5; number of colonies (H292 cells; 7.5 μM): 65.5; number of colonies (H292 cells; 10 μM): 46.5
27 | 15 | O=S(=O)(NC1CCCC(=C2c3ccccc3CCc3ccccc32)C1)c1ccc(OC(F)(F)F)cc1 (stereo not shown) [Example 77, N-(3-(10,11-dihydro-5H-dibenzo[a,d][7]annulen-5-ylidene)cyclohexyl)-4-(trifluoromethoxy)benzenesulfonamide] | –
28 | 15 | O=S(=O)(NC1CCCC(=C2c3ccccc3CCc3ccccc32)C1)c1ccc(Cl)cc1 (stereo not shown) [Example 78, N-(3-(10,11-dihydro-5H-dibenzo[a,d][7]annulen-5-ylidene)cyclohexyl)-4-chlorobenzenesulfonamide] | –
29 | ~15 | O=S(=O)(NCC(O)CN1c2ccccc2Sc2ccccc21)c1ccc(Cl)cc1 (stereo not shown) [Example 85] | –
30 | ~15 | CS(=O)(=O)Nc1ccc2c(c1)N(CCCNS(=O)(=O)c1ccc(OC(F)(F)F)cc1)c1ccccc1CC2 [Example 87] | –
31 | ~10 | O=S(=O)(NCC(O)CN1c2ccccc2CCc2ccc(Cl)cc21)c1ccc(Cl)cc1 (stereo not shown) [Example 57, 4-Chloro-N-(3-(3-chloro-10,11-dihydro-5H-dibenzo[b,f]azepin-5-yl)-2-hydroxypropyl)benzenesulfonamide] | –
32 | ~5 | O=S(=O)(NCC(O)CN1c2ccccc2CCc2ccc(Cl)cc21)c1ccc(OC(F)(F)F)cc1 (stereo not shown) [Example 58, 4-Trifluoromethoxy-N-(3-(3-chloro-10,11-dihydro-5H-dibenzo[b,f]azepin-5-yl)-2-hydroxypropyl)benzenesulfonamide] | –
